Measurements as given in patent publication US20230172848A1, “ORAL FILM FOR SAFE ADMINISTRATION OF API” (LABTEC GMBH, priority 2020, published 2023).
Where two headings read alike, the source gives them in different places.

Assays:
[1] = acceptor medium of buffer pH 7.0
Description: The dosage unit prepared from formulation F6 were tested for ex-vivo permeation on porcine buccal mucosa in vertical Franz-cells.

[2] = cited from earlier work
[3] = cited from earlier work; for required dose for induction of anesthesia: 1% solution i.v.
[4] = in vivo; cited from earlier work

For `CC(C)c1cccc(C(C)C)c1O` [propofol, 2,6-diisopropylphenol], the “concentration of saturated solution” value [1] is given as “about 167.8 μg/ml”, the “blood level required for the sedative effect” value ([2]; Dhir et al., 2016) is given as 1.5 to 2.0 µg/mL and the “average blood concentration required for anesthetic effect” value ([2]; major surgeries) is given as 4.05 ± 1.01 µg/mL. For the same compound, the “blood concentration sufficient for anesthetic effect” value ([2]; minor surgical procedures) was 2.97 ± 1.07 µg/mL, the “required dose for induction of anesthesia” value ([3]; adult patients aged less than 55 years) was 1.5-2.5 mg/kg body weight and the “required dose for induction of anesthesia” value ([3]; children over 8 years) was “about 2.5 mg/kg body weight”. For the same compound, the “rate of administration that maintains the anesthetic effect” value ([3]; adults under the age of 55) was 4-12 mg/kg body weight/h, the “rate of administration that maintains the anesthesia” value ([3]; children over the age of 1 month) was 9-15 mg/kg body weight/h and the oral bioavailability [4] was “very low”.
